#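 Assay format: 96-well plates, 48-hour exposure. GI50: concentration for 50% inhibition of growth.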 The source made the active and inactive calls. Rule as the data show it: active = GI50 up to about 1.1 µM and inactive = higher.
# Assays:
# Experiment in all cases: DTP human tumour cell line panel, 48 h
# SK-MEL-5 = system: SK-MEL-5
# RPMI-8226 = system: RPMI-8226
# OVCAR-4 = system: OVCAR-4
# SF-539 = system: SF-539
# SF-268 = system: SF-268
# A549 = system: A549
# LOX IMVI = system: LOX IMVI
# OVCAR-5 = system: OVCAR-5
# NCI-H460 = system: NCI-H460
# MOLT-4 = system: MOLT-4
# Malme-3M = system: Malme-3M
# NCI-H226 = system: NCI-H226
# HCC 2998 = system: HCC 2998
# IGROV-1 = system: IGROV-1
# UACC-257 = system: UACC-257
# SN12C = system: SN12C
# SK-OV-3 = system: SK-OV-3
# SW-620 = system: SW-620
# U-251 = system: U-251
# TK-10 = system: TK-10
SMILES,GI50 (SK-MEL-5),GI50 (RPMI-8226),GI50 (OVCAR-4),GI50 (SF-539),GI50 (SF-268),GI50 (A549),GI50 (LOX IMVI),GI50 (OVCAR-5),GI50 (NCI-H460),GI50 (MOLT-4),GI50 (Malme-3M),GI50 (NCI-H226),GI50 (HCC 2998),GI50 (IGROV-1),GI50 (UACC-257),GI50 (SN12C),GI50 (SK-OV-3),GI50 (SW-620),GI50 (U-251),GI50 (TK-10)
COC1C(O)C(n2ncc3c(SC)nc(SC)nc32)OC1C(O)CO (stereo unspecified),> 100 µM (inactive),> 100 µM (inactive),> 100 µM (inactive),> 100 µM (inactive),> 100 µM (inactive),> 100 µM (inactive),> 100 µM (inactive),> 100 µM (inactive),> 100 µM (inactive),> 100 µM (inactive),> 100 µM (inactive),> 100 µM (inactive),> 100 µM (inactive),> 100 µM (inactive),> 37.6 µM (inactive),> 100 µM (inactive),> 100 µM (inactive),> 100 µM (inactive),> 100 µM (inactive),–
CCCCN(C(=O)c1ccccc1)C1CCC(=O)c2[nH]c3ccccc3c21 (stereo unspecified),18.7 µM (inactive),19.4 µM (inactive),26.7 µM (inactive),31.5 µM (inactive),45.4 µM (inactive),34.4 µM (inactive),43.1 µM (inactive),–,35.4 µM (inactive),32.8 µM (inactive),55 µM (inactive),29 µM (inactive),34.4 µM (inactive),46.3 µM (inactive),54 µM (inactive),57.1 µM (inactive),61.1 µM (inactive),59.4 µM (inactive),29.1 µM (inactive),37.5 µM (inactive)
Cc1ccc(S(=O)(=O)N(C=O)N=C2CCN(Cc3ccccc3)CC2)cc1,> 100 µM (inactive),> 100 µM (inactive),> 100 µM (inactive),> 100 µM (inactive),–,> 100 µM (inactive),> 100 µM (inactive),> 100 µM (inactive),> 100 µM (inactive),> 100 µM (inactive),> 100 µM (inactive),> 100 µM (inactive),> 100 µM (inactive),> 100 µM (inactive),> 100 µM (inactive),> 100 µM (inactive),> 100 µM (inactive),> 100 µM (inactive),> 100 µM (inactive),> 100 µM (inactive)
C=CCOCCC(CC=C)C(=O)CC(=O)OC (stereo unspecified),> 100 µM (inactive),25.3 µM (inactive),> 100 µM (inactive),> 100 µM (inactive),> 100 µM (inactive),> 100 µM (inactive),27.9 µM (inactive),> 100 µM (inactive),> 100 µM (inactive),28.5 µM (inactive),> 100 µM (inactive),> 100 µM (inactive),> 100 µM (inactive),> 100 µM (inactive),> 100 µM (inactive),> 100 µM (inactive),> 100 µM (inactive),> 100 µM (inactive),> 100 µM (inactive),> 100 µM (inactive)
COc1cc2c(oc(=O)c3cc(C)cc(OC)c32)c2c(C3OC(C)C(O)C(C)(O)C3O)ccc(O)c12 (stereo unspecified),0.581 µM (active),0.454 µM (active),0.467 µM (active),0.466 µM (active),0.349 µM (active),0.439 µM (active),0.32 µM (active),0.681 µM (active),0.142 µM (active),0.075 µM (active),0.673 µM (active),0.376 µM (active),0.665 µM (active),0.815 µM (active),0.731 µM (active),0.402 µM (active),1.18 µM (inactive),0.312 µM (active),0.335 µM (active),–
CSc1nc(NC2OC(COC(C)=O)C(OC(C)=O)C(OC(C)=O)C2OC(C)=O)c2c(OC(C)=O)c(C)c(=O)oc2n1 (stereo unspecified),> 100 µM (inactive),> 100 µM (inactive),> 100 µM (inactive),> 100 µM (inactive),–,> 100 µM (inactive),> 100 µM (inactive),> 100 µM (inactive),> 100 µM (inactive),> 100 µM (inactive),> 100 µM (inactive),> 100 µM (inactive),> 100 µM (inactive),> 100 µM (inactive),> 100 µM (inactive),> 100 µM (inactive),> 100 µM (inactive),> 100 µM (inactive),> 100 µM (inactive),> 100 µM (inactive)
Nc1ccccc1Sc1ccc(Cl)cc1,17.8 µM (inactive),24.4 µM (inactive),30.8 µM (inactive),35.4 µM (inactive),39.6 µM (inactive),37.2 µM (inactive),28.6 µM (inactive),29.9 µM (inactive),24.3 µM (inactive),> 10 µM (inactive),26.1 µM (inactive),4.86 µM (inactive),28.1 µM (inactive),52 µM (inactive),23.2 µM (inactive),23.2 µM (inactive),40.4 µM (inactive),37.1 µM (inactive),16.2 µM (inactive),35.6 µM (inactive)
O=C/C(=C1/C=Cc2cc([N+](=O)[O-])ccc2S1)c1ccccc1,> 100 µM (inactive),> 100 µM (inactive),> 100 µM (inactive),> 100 µM (inactive),> 100 µM (inactive),> 100 µM (inactive),> 100 µM (inactive),> 100 µM (inactive),> 100 µM (inactive),> 100 µM (inactive),> 100 µM (inactive),> 100 µM (inactive),> 100 µM (inactive),> 100 µM (inactive),> 100 µM (inactive),> 100 µM (inactive),> 100 µM (inactive),–,> 100 µM (inactive),> 100 µM (inactive)
O=C1C=C(Sc2ccccc2)c2nccc3c2c1nc1ccccc13,–,28.1 µM (inactive),16.1 µM (inactive),17.1 µM (inactive),12.4 µM (inactive),31.5 µM (inactive),11.8 µM (inactive),32.4 µM (inactive),23.6 µM (inactive),4.27 µM (inactive),12.2 µM (inactive),72.6 µM (inactive),17.5 µM (inactive),11.2 µM (inactive),15.5 µM (inactive),17.8 µM (inactive),80 µM (inactive),14.8 µM (inactive),18.5 µM (inactive),31.1 µM (inactive)
CCOC(=O)c1c[nH]c2cc3c(cc2c1=O)CCS3(=O)=O.CCOC(=O)c1c[nH]c2ccc3c(c2c1=O)S(=O)(=O)CC3,> 100 µM (inactive),> 100 µM (inactive),> 100 µM (inactive),> 100 µM (inactive),> 100 µM (inactive),> 100 µM (inactive),> 100 µM (inactive),> 100 µM (inactive),> 100 µM (inactive),> 100 µM (inactive),> 100 µM (inactive),62.4 µM (inactive),> 100 µM (inactive),> 100 µM (inactive),> 100 µM (inactive),> 100 µM (inactive),> 100 µM (inactive),> 100 µM (inactive),> 100 µM (inactive),–
COc1ccc(C2c3cc4c(cc3OC(NCCO)C2C)OCO4)cc1 (stereo unspecified),19.8 µM (inactive),22.1 µM (inactive),–,20 µM (inactive),23.2 µM (inactive),21.7 µM (inactive),23.3 µM (inactive),39.7 µM (inactive),22.8 µM (inactive),16.6 µM (inactive),18.7 µM (inactive),28.2 µM (inactive),26.5 µM (inactive),28.8 µM (inactive),21 µM (inactive),23.8 µM (inactive),38.1 µM (inactive),34.4 µM (inactive),21.2 µM (inactive),23.8 µM (inactive)
COc1ccc2[nH]c3c(C)c4ccncc4c(C)c3c2c1,1.26 µM (inactive),0.289 µM (active),0.258 µM (active),0.409 µM (active),0.429 µM (active),0.264 µM (active),0.251 µM (active),1.42 µM (inactive),0.0292 µM (active),0.0635 µM (active),1.44 µM (inactive),1.13 µM (inactive),1.92 µM (inactive),0.289 µM (active),1.85 µM (inactive),0.177 µM (active),0.75 µM (active),0.0918 µM (active),0.513 µM (active),–
c1ccc2c(c1)NCc1cc3ccccc3nc1O2,> 100 µM (inactive),> 100 µM (inactive),> 100 µM (inactive),> 100 µM (inactive),> 100 µM (inactive),> 100 µM (inactive),97.1 µM (inactive),> 100 µM (inactive),> 100 µM (inactive),83 µM (inactive),> 100 µM (inactive),> 40.7 µM (inactive),> 100 µM (inactive),> 100 µM (inactive),> 100 µM (inactive),> 100 µM (inactive),> 100 µM (inactive),> 100 µM (inactive),–,–
O=C(O)c1ccc(Nc2c3ccccc3nc3ccccc23)cc1,> 68.1 µM (inactive),54.8 µM (inactive),> 100 µM (inactive),> 78.2 µM (inactive),67.9 µM (inactive),41.2 µM (inactive),60.8 µM (inactive),> 100 µM (inactive),22.6 µM (inactive),23.1 µM (inactive),43.3 µM (inactive),31.8 µM (inactive),> 100 µM (inactive),> 100 µM (inactive),> 100 µM (inactive),64.7 µM (inactive),> 100 µM (inactive),59.7 µM (inactive),51.6 µM (inactive),–
Cc1ccc(C#CS(=O)(=O)C(F)(F)F)cc1,> 100 µM (inactive),> 100 µM (inactive),> 100 µM (inactive),> 100 µM (inactive),> 100 µM (inactive),> 100 µM (inactive),> 31.6 µM (inactive),> 100 µM (inactive),> 100 µM (inactive),> 100 µM (inactive),> 100 µM (inactive),> 89.7 µM (inactive),> 100 µM (inactive),> 100 µM (inactive),> 100 µM (inactive),> 100 µM (inactive),> 100 µM (inactive),> 100 µM (inactive),> 100 µM (inactive),–

# — ChEMBL document CHEMBL1201862, “PubChem BioAssay data set” (2004)
